Active and inactive are the calls of the source. The rule behind the calls is not given here.
Legend:
[1] = molecular target: T1, Interleukin-1 receptor-associated kinase 4 (Homo sapiens, UniProt Q9NWZ3); experiment: Inhibition of IRAK4 (unknown origin)
T1 sequence (Q9NWZ3 whole entry): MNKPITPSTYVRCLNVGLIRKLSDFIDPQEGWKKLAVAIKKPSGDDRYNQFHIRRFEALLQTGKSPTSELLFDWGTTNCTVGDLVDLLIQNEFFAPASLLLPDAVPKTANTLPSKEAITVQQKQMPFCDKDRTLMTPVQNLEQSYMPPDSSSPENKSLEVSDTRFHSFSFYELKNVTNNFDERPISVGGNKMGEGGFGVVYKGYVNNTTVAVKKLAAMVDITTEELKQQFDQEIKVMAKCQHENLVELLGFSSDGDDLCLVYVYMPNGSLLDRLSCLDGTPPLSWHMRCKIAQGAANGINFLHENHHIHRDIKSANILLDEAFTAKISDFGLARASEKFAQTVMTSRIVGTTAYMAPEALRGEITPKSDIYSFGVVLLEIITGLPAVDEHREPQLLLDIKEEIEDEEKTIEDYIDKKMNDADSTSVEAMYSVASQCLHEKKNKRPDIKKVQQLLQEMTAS

[2] = molecular target: Protein cereblon/Interleukin-1 receptor-associated kinase 4 (Homo sapiens, UniProt Q9NWZ3+Q96SW2); experiment: PROTAC activity at IRAK4/CRBN in human PBMC cells assessed as reduction in IRAK4 level at 100 nM incubated for 12 hrs by Western blot analysis; assay type: cell-based
[3] = molecular target: Protein cereblon/Interleukin-1 receptor-associated kinase 4 (Mus musculus) (UniProt Q8C7D2+Q8R4K2); experiment: PROTAC activity at IRAK4/CRBN in mouse RAW264.7 cells assessed as reduction in IRAK4 level at 200 nM incubated for 12 hrs by proteomic analysis; assay type: cell-based
[4] = molecular target: DNA-binding protein Ikaros (Homo sapiens) (UniProt Q13422); experiment: Induction of IKZF1 degradation in human THP-1 cells upto 10000 nM incubated for 12 hrs by Western blotting analysis; assay type: cell-based
[5] = molecular target: Sal-like protein 4 (Homo sapiens) (UniProt Q9UJQ4); experiment: Induction of SALL4 degradation in human THP-1 cells upto 10000 nM incubated for 12 hrs by Western blotting analysis; assay type: cell-based
[6] = molecular target: MAP kinase p38 (Mus musculus) (UniProt P47811+O08911+Q9WUI1+Q9Z1B7); experiment: Inhibition of MAPK phosphorylation in LPS-induced mouse RAW264.7 cells at 1 uM pretreated with compound for 1 hr followed by LPS-induction and measured after 2 hrs by Western blot analysis; assay type: cell-based; conditions: time 3.0 hrs
RAW264.7 [7] = experiment: Activation of NF-kappaB pathway in LPS-induced mouse RAW264.7 cells expressing EGFP at 5 uM pretreated with compound for 1 hr followed by LPS-induction and measured after 6 hrs by flow cytometry analysis; assay type: cell-based; conditions: filed as activator, time 7.0 hrs
RAW264.7 [8] = experiment: Effect on IL-6 mRNA expression in LPS-induced mouse RAW264.7 cells at 1 uM pretreated with compound for 1 hr followed by LPS-induction and measured after 6 hrs by RT-PCR analysis; assay type: functional, cell-based; conditions: time 7.0 hrs
[9] = molecular target: T2, Interleukin-1 receptor-associated kinase 4 (Homo sapiens) (UniProt Q9NWZ3); experiment: Inhibition of IRAK4 in human BMDM cells assessed as decrease in TLR4 endocytosis by flow cytometry analysis; assay type: cell-based
T2 sequence (whole entry): T1 sequence (Q9NWZ3 whole entry)

[10] = Half life in Sprague-Dawley rat at 2 mg/kg, iv by LC-MS/MS analysis; assay type: ADME, organism-based; conditions: in vivo
[11] = Tmax in Sprague-Dawley rat at 20 mg/kg, po by LC-MS/MS analysis; assay type: ADME, organism-based; conditions: in vivo
[12] = Volume of distribution at steady state in Sprague-Dawley rat at 2 mg/kg, iv by LC-MS/MS analysis; assay type: ADME, organism-based; conditions: in vivo, read-out: Vdss
Mus musculus [13] = experiment: Anti-inflammatory activity against LPS-induced acute […] injury C57BL/6 mouse model assessed as reduction in TNF-alpha level in BALF at 20 mg/kg, IG pretreated with compound for 12 hrs followed by LPS-induction and measured after 6 hrs by ELISA analysis; assay type: functional, organism-based; conditions: time 18.0 hrs
Mus musculus [14] = experiment: Anti-inflammatory activity against LPS-induced acute […] injury C57BL/6 mouse model assessed as reduction in IL-6 level in BALF at 20 mg/kg, IG pretreated with compound for 12 hrs followed by LPS-induction and measured after 6 hrs by ELISA analysis; assay type: functional, organism-based; conditions: time 18.0 hrs
Mus musculus [15] = experiment: Anti-inflammatory activity against LPS-induced acute […] injury C57BL/6 mouse model assessed as reduction in TNF-alpha level in lung at 20 mg/kg, IG pretreated with compound for 12 hrs followed by LPS-induction and measured after 6 hrs by RT-PCR analysis; assay type: functional, organism-based; conditions: time 18.0 hrs
[16] = Toxicity in C57BL/6 mouse assessed as lung damage at 20 mg/kg, IG by H and E staining based analysis; assay type: organism-based; conditions: in vivo, po
Mus musculus [17] = experiment: Anti-inflammatory activity against LPS-induced acute […] injury C57BL/6 mouse model assessed as reduction in F4/80-positive macrophage in lung at 20 mg/kg, IG pretreated with compound for 12 hrs followed by LPS-induction and measured after 6 hrs by Immunohistochemical analysis; assay type: functional, organism-based; conditions: time 18.0 hrs
RAW264.7 [18] = experiment: Protection against Escherichia coli-induced sepsis in mouse RAW264.7 cells assessed as reduction in IL-6 level at 1 uM pretreated with compound for 6 hrs followed by Escherichia coli-induction and measured after 6 hrs by RT-PCR analysis; assay type: functional, cell-based; conditions: time 12.0 hrs
RAW264.7 [19] = experiment: Protection against Escherichia coli-induced sepsis in mouse RAW264.7 cells assessed as reduction in TNF-alpha level at 1 uM pretreated with compound for 6 hrs followed by Escherichia coli-induction and measured after 6 hrs by RT-PCR analysis; assay type: functional, cell-based; conditions: time 12.0 hrs
RAW264.7 [20] = experiment: Protection against Escherichia coli-induced sepsis in mouse RAW264.7 cells assessed as reduction in IL-6 production at 1 uM pretreated with compound for 6 hrs followed by Escherichia coli-induction and measured after 6 hrs by ELISA analysis; assay type: functional, cell-based; conditions: time 12.0 hrs
RAW264.7 [21] = experiment: Protection against Escherichia coli-induced sepsis in mouse RAW264.7 cells assessed as reduction in TNF-alpha production at 1 uM pretreated with compound for 6 hrs followed by Escherichia coli-induction and measured after 6 hrs by ELISA analysis; assay type: functional, cell-based; conditions: time 12.0 hrs
Mus musculus [22] = experiment: Anti-inflammatory activity in imiquimod-induced C57BL/6 mouse psoriasis model assessed as improvement in swelling at 20 mg/kg, po administered twice daily measured for 6 days; assay type: functional, organism-based; conditions: time 6.0 day
Mus musculus [23] = experiment: Anti-inflammatory activity in imiquimod-induced C57BL/6 mouse psoriasis model assessed as improvement in scaling at 20 mg/kg, po administered twice daily measured for 6 days; assay type: functional, organism-based; conditions: time 6.0 day
Mus musculus [24] = experiment: Anti-inflammatory activity in imiquimod-induced C57BL/6 mouse psoriasis model assessed as reduction in keratinocyte proliferation at 20 mg/kg, po administered twice daily measured for 6 days by H and E staining based analysis; assay type: functional, organism-based; conditions: time 6.0 day
Mus musculus [25] = experiment: Anti-inflammatory activity in imiquimod-induced C57BL/6 mouse psoriasis model assessed as […] in skin thickness at 20 mg/kg, po administered twice daily measured on day 7 by H and E staining based analysis; assay type: functional, organism-based; conditions: time 7.0 day
[26] = Toxicity in C57BL/6 mouse assessed as effect on body weight at 20 mg/kg, po measured for 6 days; assay type: organism-based; conditions: in vivo, 144 h, time 6 day

Chain of Protein cereblon/Interleukin-1 receptor-associated kinase 4 (Mus musculus) (Q8C7D2 whole entry, looked up): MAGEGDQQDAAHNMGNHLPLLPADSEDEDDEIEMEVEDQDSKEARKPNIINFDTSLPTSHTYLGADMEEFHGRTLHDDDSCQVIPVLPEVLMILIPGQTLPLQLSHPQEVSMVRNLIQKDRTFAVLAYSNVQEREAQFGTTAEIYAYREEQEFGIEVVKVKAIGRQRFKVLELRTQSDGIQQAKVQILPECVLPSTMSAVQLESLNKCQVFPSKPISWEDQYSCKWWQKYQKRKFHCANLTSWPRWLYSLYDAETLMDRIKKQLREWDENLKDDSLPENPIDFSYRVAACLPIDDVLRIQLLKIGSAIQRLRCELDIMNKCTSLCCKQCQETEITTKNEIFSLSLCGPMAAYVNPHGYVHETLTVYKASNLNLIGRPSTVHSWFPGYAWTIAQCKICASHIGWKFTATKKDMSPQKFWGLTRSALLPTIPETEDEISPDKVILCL
Chain of Protein cereblon/Interleukin-1 receptor-associated kinase 4 (Mus musculus) (Q8R4K2 whole entry, looked up): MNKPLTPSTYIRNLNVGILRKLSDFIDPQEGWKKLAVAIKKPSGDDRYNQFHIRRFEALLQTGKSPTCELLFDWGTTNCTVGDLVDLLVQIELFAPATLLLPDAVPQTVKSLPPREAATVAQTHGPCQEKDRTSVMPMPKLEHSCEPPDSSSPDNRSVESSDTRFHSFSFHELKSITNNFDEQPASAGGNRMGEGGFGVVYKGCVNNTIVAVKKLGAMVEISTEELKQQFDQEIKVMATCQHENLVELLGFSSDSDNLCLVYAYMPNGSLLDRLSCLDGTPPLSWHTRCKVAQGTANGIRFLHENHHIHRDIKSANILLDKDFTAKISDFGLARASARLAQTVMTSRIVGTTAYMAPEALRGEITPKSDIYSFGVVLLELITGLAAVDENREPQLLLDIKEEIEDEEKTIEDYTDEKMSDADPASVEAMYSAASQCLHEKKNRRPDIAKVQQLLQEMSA
Chain of Protein cereblon/Interleukin-1 receptor-associated kinase 4 (Q96SW2 whole entry, looked up, one chain of several): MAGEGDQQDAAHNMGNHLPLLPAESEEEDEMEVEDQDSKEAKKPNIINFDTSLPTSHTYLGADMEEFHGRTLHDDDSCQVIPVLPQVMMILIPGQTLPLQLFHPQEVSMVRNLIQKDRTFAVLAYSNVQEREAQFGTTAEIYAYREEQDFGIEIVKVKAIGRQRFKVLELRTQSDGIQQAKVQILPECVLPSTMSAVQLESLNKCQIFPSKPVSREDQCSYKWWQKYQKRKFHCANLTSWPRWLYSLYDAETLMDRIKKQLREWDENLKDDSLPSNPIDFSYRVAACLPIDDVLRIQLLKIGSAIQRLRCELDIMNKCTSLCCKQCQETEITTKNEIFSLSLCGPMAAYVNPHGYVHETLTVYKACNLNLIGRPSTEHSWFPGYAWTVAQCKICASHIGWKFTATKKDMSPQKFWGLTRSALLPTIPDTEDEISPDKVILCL
Chain of DNA-binding protein Ikaros (Homo sapiens) (Q13422 whole entry): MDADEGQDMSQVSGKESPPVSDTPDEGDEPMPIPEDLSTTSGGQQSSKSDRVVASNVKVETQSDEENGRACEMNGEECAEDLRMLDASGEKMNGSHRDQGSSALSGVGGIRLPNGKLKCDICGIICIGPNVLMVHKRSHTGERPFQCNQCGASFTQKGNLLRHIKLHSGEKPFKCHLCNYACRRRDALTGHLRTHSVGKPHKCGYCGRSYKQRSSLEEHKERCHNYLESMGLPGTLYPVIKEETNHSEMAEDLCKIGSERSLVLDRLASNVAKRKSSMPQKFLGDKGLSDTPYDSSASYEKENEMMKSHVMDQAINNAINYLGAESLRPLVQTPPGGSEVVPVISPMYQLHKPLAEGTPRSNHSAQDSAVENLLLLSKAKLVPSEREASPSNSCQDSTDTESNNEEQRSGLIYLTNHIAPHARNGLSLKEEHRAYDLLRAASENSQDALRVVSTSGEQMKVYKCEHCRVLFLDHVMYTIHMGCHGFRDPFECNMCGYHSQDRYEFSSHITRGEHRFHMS
Chain of Sal-like protein 4 (Homo sapiens) (Q9UJQ4 whole entry): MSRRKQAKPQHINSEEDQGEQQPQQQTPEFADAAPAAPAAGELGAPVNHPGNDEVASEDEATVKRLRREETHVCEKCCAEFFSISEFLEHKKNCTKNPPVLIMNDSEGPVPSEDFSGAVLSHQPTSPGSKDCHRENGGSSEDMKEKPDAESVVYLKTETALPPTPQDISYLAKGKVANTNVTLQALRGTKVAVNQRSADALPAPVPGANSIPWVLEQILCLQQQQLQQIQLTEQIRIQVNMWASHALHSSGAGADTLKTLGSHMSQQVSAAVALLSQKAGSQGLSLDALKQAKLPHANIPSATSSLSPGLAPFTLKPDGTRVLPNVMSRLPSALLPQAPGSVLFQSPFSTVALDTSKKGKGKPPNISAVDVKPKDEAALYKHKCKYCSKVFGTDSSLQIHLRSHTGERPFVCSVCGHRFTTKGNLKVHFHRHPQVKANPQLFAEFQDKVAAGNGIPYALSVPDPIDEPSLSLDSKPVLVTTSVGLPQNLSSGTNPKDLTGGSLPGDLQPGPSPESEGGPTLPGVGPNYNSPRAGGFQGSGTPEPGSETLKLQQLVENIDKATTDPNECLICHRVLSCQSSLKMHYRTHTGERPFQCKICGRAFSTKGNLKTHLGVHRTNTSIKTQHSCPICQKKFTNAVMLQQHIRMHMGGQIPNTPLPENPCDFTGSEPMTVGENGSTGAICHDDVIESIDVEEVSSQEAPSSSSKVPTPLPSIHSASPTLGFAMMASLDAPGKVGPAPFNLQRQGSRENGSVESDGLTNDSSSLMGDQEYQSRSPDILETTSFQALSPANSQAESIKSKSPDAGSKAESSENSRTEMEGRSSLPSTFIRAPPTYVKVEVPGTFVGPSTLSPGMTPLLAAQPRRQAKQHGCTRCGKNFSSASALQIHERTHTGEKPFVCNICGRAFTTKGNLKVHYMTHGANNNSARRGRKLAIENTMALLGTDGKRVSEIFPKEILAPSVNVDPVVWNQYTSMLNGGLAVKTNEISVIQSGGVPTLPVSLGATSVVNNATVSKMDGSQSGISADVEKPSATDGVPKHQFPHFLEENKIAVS

With `COc1cc(N2CCN(C(=O)CCOCC#Cc3ccc4c(c3)C(=O)N(C3CCC(=O)NC3=O)C4=O)CC2)ccc1NC(=O)c1cccc(-c2ccn[nH]2)n1` (stereo unspecified) the IC50 [1] was less than 100 nM, the Activity [2] was “Active” and the Activity [3] was “Active”. For the same compound, the Activity [4] was “inactive”, the Activity [5] was “inactive” and the inhibition [6] was “Active”. The Activity (RAW264.7 [7]) was “Active”, the Activity (RAW264.7 [8]) was “Active” and the inhibition [9] was “Active”. It also gave a half-life [10] of 29.2 min, a Tmax [11] of 30 min and a Vd [12] of 0.584 L/kg. For the same compound, the Activity (Mus musculus [13]) was “Active”, the Activity (Mus musculus [14]) was “Active” and the Activity (Mus musculus [15]) was “Active”. For the same compound, the Activity [16] was “Non-Toxic”, the Activity (Mus musculus [17]) was “Active” and the Activity (RAW264.7 [18]) was “Active”. For the same compound, the Activity (RAW264.7 [19]) was “Active”, the Activity (RAW264.7 [20]) was “Active” and the Activity (RAW264.7 [21]) was “Active”. For the same compound, the Activity (Mus musculus [22]) was “Active”, the Activity (Mus musculus [23]) was “Active” and the Activity (Mus musculus [24]) was “Active”. The Activity (Mus musculus [25]) was “Active” and the Activity [26] was “Non-Toxic”.

Source: ChEMBL document CHEMBL5506038, “Discovery of LC-MI-3: A Potent and Orally Bioavailable Degrader of Interleukin-1 Receptor-Associated Kinase 4 for the Treatment of Inflammatory Diseases” (J Med Chem, 2024)
